# Toxic doses and inconclusive results are not listed.
# Test system: CD2F1 mice, L1210 leukemia ip, survival T/C
# Test: NCI In Vivo Anticancer Drug Screen. Data for tumor model L1210 Leukemia (intraperitoneal) in CD2F1 (CDF1) mice
# Settings: endpoint: mean survival time, higher = longer survival
# Procedure, shortened: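 Antitumor effect is scored in animals hosting a serially transplanted tumor. Values compare compound-dosed animals against vehicle-only controls as a simple quotient.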
# [1] = dose: 100.0 mg/kg/injection, schedule: Q04DX002 (ip), vehicle: saline with Tween-80
# [2] = dose: 200.0 mg/kg/injection, schedule: Q04DX002 (ip), vehicle: saline with Tween-80
# [3] = dose: 25.0 mg/kg/injection, schedule: Q01DX009 (ip), vehicle: saline with Tween-80
# [4] = dose: 25.0 mg/kg/injection, schedule: Q04DX003 (ip), vehicle: saline
# [5] = dose: 50.0 mg/kg/injection, schedule: Q01DX009 (ip), vehicle: saline with Tween-80
# [6] = dose: 50.0 mg/kg/injection, schedule: Q04DX003 (ip), vehicle: saline
# [7] = dose: 100.0 mg/kg/injection, schedule: Q04DX003 (ip), vehicle: saline
# [8] = dose: 400.0 mg/kg/injection, schedule: Q01DX009 (ip), vehicle: saline with Tween-80
# [9] = dose: 100.0 mg/kg/injection, schedule: Q01DX009 (ip), vehicle: saline with Tween-80
# [10] = dose: 200.0 mg/kg/injection, schedule: Q01DX009 (ip), vehicle: saline with Tween-80
smiles,measurement,setting,value
CC(=O)SCC1C(=O)n2c(cc3ccccc32)C(=O)N1C (stereo not given),T/C,"dose: 50.0 mg/kg/injection, schedule: Q04DX002 (ip), vehicle: saline with Tween-80",89 % of control
same,T/C,[1],96 % of control
same,T/C,[2],101 % of control
O=c1[nH]c(=O)n([C@H]2CCCO2)cc1F,T/C,"dose: 25.0 mg/kg/injection, schedule: Q01DX005 (ip), vehicle: other",93 % of control
same,T/C,[3],97 % of control
same,T/C,[4],90 % of control
same,T/C,"dose: 50.0 mg/kg/injection, schedule: Q01DX005 (ip), vehicle: other",93 % of control
same,T/C,[5],101 % of control
same,T/C,[6],100 % of control
same,T/C,"dose: 100.0 mg/kg/injection, schedule: Q01DX005 (ip), vehicle: other",114 % of control
same,T/C,[7],105 % of control
same,T/C,"dose: 112.5 mg/kg/injection, schedule: Q04DX003 (ip), vehicle: saline with Tween-80",106 % of control
same,T/C,"dose: 112.5 mg/kg/injection, schedule: Q04DX003 (iv), vehicle: saline with Tween-80",104 % of control
same,T/C,"dose: 225.0 mg/kg/injection, schedule: Q04DX003 (ip), vehicle: saline with Tween-80",116 % of control
same,T/C,"dose: 225.0 mg/kg/injection, schedule: Q04DX003 (iv), vehicle: saline with Tween-80",113 % of control
same,T/C,"dose: 400.0 mg/kg/injection, schedule: Q01DX005 (ip), vehicle: other",95 % of control
same,T/C,[8],104 % of control
same,T/C,"dose: 400.0 mg/kg/injection, schedule: Q04DX003 (ip), vehicle: saline",158 % of control
same,T/C,"dose: 450.0 mg/kg/injection, schedule: Q04DX003 (ip), vehicle: saline with Tween-80",153 % of control
O=C(O)CCCCCCC(=O)c1ccccc1,T/C,[9],98 % of control
same,T/C,[10],97 % of control
same,T/C,[8],93 % of control
O.[Cl][Pt].[S-]CCN1CCCCC1,T/C,"dose: 12.5 mg/kg/injection, schedule: Q04DX003 (ip), vehicle: distilled water + Tween-80",96 % of control
same,T/C,"dose: 25.0 mg/kg/injection, schedule: Q04DX003 (ip), vehicle: distilled water + Tween-80",100 % of control
same,T/C,"dose: 50.0 mg/kg/injection, schedule: Q04DX003 (ip), vehicle: distilled water + Tween-80",98 % of control
same,T/C,"dose: 100.0 mg/kg/injection, schedule: Q04DX003 (ip), vehicle: distilled water + Tween-80",90 % of control
same,T/C,"dose: 200.0 mg/kg/injection, schedule: Q04DX003 (ip), vehicle: distilled water + Tween-80",93 % of control
c1ccc2c3c(ccc2c1)OCN(C12CC4CC(CC(C4)C1)C2)C3,T/C,[9],96 % of control
same,T/C,[10],102 % of control
same,T/C,[8],90 % of control
CCOC(=O)c1c(-c2ccccc2)[nH]c(C)cc1=O,T/C,[1],100 % of control
same,T/C,[2],100 % of control
same,T/C,"dose: 400.0 mg/kg/injection, schedule: Q04DX002 (ip), vehicle: saline with Tween-80",100 % of control
Clc1c(Cl)c(Cl)[c]([Hg][c]2c(Cl)c(Cl)c(Cl)c(Cl)c2Cl)c(Cl)c1Cl,T/C,[3],100 % of control
same,T/C,[4],103 % of control
same,T/C,[5],103 % of control
same,T/C,[6],97 % of control
same,T/C,[9],97 % of control
same,T/C,"dose: 100.0 mg/kg/injection, schedule: Q04DX003 (ip), vehicle: saline with Tween-80",96 % of control
same,T/C,[7],97 % of control
